# Reference: PMC7717570, “Deciphering the enzymatic target of a new family of antischistosomal agents bearing a quinazoline scaffold using complementary computational tools” (Journal of Enzyme Inhibition and Medicinal Chemistry, 2020)
# Tested on: S. mansoni-infected mouse model
# Test: In vivo antischistosomal efficacy in the S. mansoni-infected mouse model
# Set-up: species or system Schistosoma mansoni
# Conditions: mice
# Description: PZQ was obtained from Egyptian International Pharmaceutical Industries Company (EIPICO) and aminobenzotriazole (ABT) from Fluorochem Ltd.
# Male Swiss albino mice (CD-1) obtained from SBSC and weighing 18–20 g were housed under environmentally controlled room temperature of 20–22 °C, 12 h light/dark cycle and 50–60% humidity with food and water ad libitum throughout the acclimatisation and experimental periods. All the animal experiments were conducted in accordance with the Guide for Care and Use of Laboratory Animals and were approved by the Institutional Review Board of Theodor Bilharz Research Institute (TBRI).
# Mice were infected with S. mansoni cercariae [provided by Schistosome Biology Supply Center (SBSC)] using body immersion[16] by exposure to 80 ± 10 cercariae/mouse. Infected mice were divided into six groups: groups 1 and 2 were treated the vehicle and the CYP450 inhibitor ABT respectively; groups 3 and 4 were dosed for 5 days with NPD-1246 at 20 and 10 mg/kg, respectively, while group 5 was treated with PZQ at 10 mg/kg/day for 5 days. Group 6 was treated with NPD-1246 combined with PZQ, each at 10 mg/kg/day for 5 days starting from week 7 post-infection. To minimise first-pass elimination, ABT was administered at 100 mg/kg/day for 5 days 2 h prior to each compound administration. NPD-1246 and PZQ were freshly suspended in 2% Cremophore-EL (Sigma-Aldrich). All drug administrations were performed orally.
# Ten days post-treatment, all mice were sacrificed and perfused, and the number of worms recovered (worm burden) was quantified and sexed. The number of eggs per gram of liver or intestinal tissue was counted. The percentage of egg developmental stages (oogram pattern) was studied[19] in which eggs at different stages of maturity (from I to IV) were identified and counted. Mature eggs and dead eggs (granular, dark, and semi-transparent) were also counted in three fragments of intestine and the mean number of each stage was calculated.
# The percentage reduction of worm or egg burden in each treated group was calculated. […] Results are expressed as mean ± SEM. A two-tailed, unpaired Student’s t-test was used to detect the significance of difference between the means of different groups. Results are considered significant if p value is <0.05.
smiles,measurement,setting,value
"O=C(C1CCCCC1)N1CC(=O)N2CCc3ccccc3C2C1 (stereo not drawn) [PZQ, praziquantel, reference compound]",Reduction in intestinal tissue egg load (percentage change from infected control),oral 10 mg/kg/day (each) for 5 days with ABT,70%
same,Reduction in total worm burden (percentage change from infected control),"oral 10 mg/kg/day (each) for 5 days with ABT 100 mg/kg/day, sacrificed 10 days post-treatment",63%
same,Reduction in hepatic tissue egg load (percentage change from infected control),"oral 10 mg/kg/day (each) for 5 days with ABT, + = increase",38%
